Laboratory results published in PMC6572338 (2019).

Experiments:
[1] = system: C-mycG4 (Pu-27); C-myc G4 (DNA, G4) TGGGGAGGGTGGGGAGGGTGGGGAAGG; test: PCR-stop assay; details: 50 mM KCl; Platinum Supermix, 0.5 uM each oligonucleotide, Pu27rev primer; dose-dependent reduction of product
[2] = system: Pu27rev (DNA, single strand) ATCGATCGCTTCTTCGTCCTTCCCCA; test: SPR (Biacore 3000); details: 200 mM KCl, 5 mM MgCl2; 20 mM HEPES pH 7.5, 1% DMSO, 0.005% P-20; immobilised compound; NB, oligonucleotide up to 10 uM
[3] = system: C-kit2; C-kit2 G4 (DNA, G4) GGGCGGGCGCGAGGGAGGGG; test: SPR (Biacore 3000), 1:1 Langmuir kinetics; details: 200 mM KCl, 5 mM MgCl2; 20 mM HEPES pH 7.5, 1% DMSO, 0.005% P-20; immobilised compound
[4] = system: c-myc_G4_1234; Pu21_1234 (DNA, G4) TGGGGAGGGTGGGGAGGGTGG; test: SPR (Biacore 3000), 1:1 Langmuir kinetics; details: 200 mM KCl, 5 mM MgCl2, 20 mM HEPES pH 7.5, 1% DMSO, 0.005% P-20, immobilised compound
[5] = system: C-mycG4 (Pu-27); C-myc G4 (DNA, G4) TGGGGAGGGTGGGGAGGGTGGGGAAGG; test: SPR (Biacore 3000), 1:1 Langmuir kinetics; details: 200 mM KCl, 5 mM MgCl2, 20 mM HEPES pH 7.5, 1% DMSO, 0.005% P-20, immobilised compound
[6] = system: C-kit1; C-kit1 G4 (DNA, G4) AGGGAGGGCGCTGGGAGGAGGG; test: SPR (Biacore 3000), 1:1 Langmuir kinetics; details: 200 mM KCl, 5 mM MgCl2; 20 mM HEPES pH 7.5, 1% DMSO, 0.005% P-20; immobilised compound
[7] = system: c-myc_G4_2345; Pu21_2345 (DNA, G4) GAGGGTGGGGAGGGTGGGGAA; test: SPR (Biacore 3000), 1:1 Langmuir kinetics; details: 200 mM KCl, 5 mM MgCl2, 20 mM HEPES pH 7.5, 1% DMSO, 0.005% P-20, immobilised compound

Compound | binding [1] | binding [2] | KD [3] | KD [4] | KD [5] | KD [6] | KD ([7]; text prints 190 nM) | KD ([4]; text prints 328 nM) | KD ([5]; text prints 1.06 µM) | KD [7]
Cc1cnccc1N1CCN(c2nccc3c2nc(-c2c[nH]c4ccncc24)n3CCOCCOCCN)CC1 | yes |  |  |  |  |  |  |  |  | 
Cc1cnccc1N1CCN(c2nccc3c2nc(-c2c[nH]c4ccncc24)n3CCOCCOCCNC(=O)CCCC[C@@H]2SC[C@@H]3NC(=O)N[C@@H]32)CC1 |  | no | 1400 nM | 59 nM | 328 nM | 807 nM | 197 nM |  |  | 
Cn1cccc1CN(CC(=O)NCCOCCOCCN)Cc1ccc(OCC(=O)NCc2nc3ccccc3c(=O)[nH]2)c(Cl)c1 | yes |  |  |  |  |  |  |  |  | 
Cn1cccc1CN(CC(=O)NCCOCCOCCNC(=O)CCCC[C@@H]1SC[C@@H]2NC(=O)N[C@@H]21)Cc1ccc(OCC(=O)NCc2nc3ccccc3c(=O)[nH]2)c(Cl)c1 |  | no | 1700 nM |  |  | 1100 nM |  | 338 nM | 1050 nM | 308 nM
